Key:
[1] = tested on: zymostenol accumulation (EBP) in EpiSC-derived OPCs; assay: GC/MS-based sterol profiling, zymostenol accumulation in EpiSC-derived OPCs; assay type: cell-based, mouse; details: Mus musculus, 24 h, EpiSC-derived OPCs, 24 hr, 8 doses from 0.15 nM to 333 nM; read-out: Mouse Zymostenol GCMS EC50
Experimental: (§1) To assess effects of treatments on OPCs, all treatments were assayed in two or more independent platings of epiblast stem cell-derived OPCs (EpiSC). EpiSC-derived OPCs were obtained using in vitro differentiation protocols and culture conditions described previously (Najm et al, 2011, Nature Methods). OPCs were expanded and frozen down in aliquots. OPCs were thawed into growth conditions for at least one passage before use in further assays.
Sterols were monitored using a modified Folch wash protocol (Hubler et al, 2018, Nature). EpiSC-derived OPCs were plated at 100,000 cells per well in PO- and laminin-coated 96-well plates in N2B27 media without growth factors. After 24 hours, cells were rinsed with saline and plates were frozen. Cholesterol-d7 standard was then added to each well before drying under nitrogen stream and derivatization with 55 μl of bis(trimethylsilyl) trifluoroacetamide. After derivatization, 2 μl were analyzed by gas chromatography/mass spectrometry using an Agilent 5973 Network Mass Selective Detector equipped with a 6890 gas chromatograph system and a HP-5MS capillary column (30 m×0.25 mm×[…]). Samples were analyzed in full scan mode using electron impact ionization; ion fragment peaks were integrated to calculate sterol abundance, and quantitation was relative to cholesterol-d7. The following ion fragments were used to quantitate each metabolite: cholesterol-d7 (465), FF-Mas (482), cholesterol (368), zymostenol (458), zymosterol (456), Desmosterol (456, 343), 7-dehydrocholesterol (456, 325), lanosterol (393), lathosterol (458), 14-dehydrozymostenol (456, 351). […] All standards were obtained from Avanti Polar Lipids unless otherwise indicated. Calibration curves were generated by injecting varying concentrations of sterol standards and maintaining a fixed amount of cholesterol-D7. For normalized zymostenol accumulation results, the total amount of zymostenol measured after drug treatment was divided by the total amount of zymostenol accumulated after 24 hr treatment with 100 nM positive control reference.

[2] = tested on: EpiSC-derived OPCs; assay: In vitro phenotypic screening of OPCs, MBP high-content imaging (percentage of oligodendrocytes); assay type: cell-based, mouse; details: for EC50: Mus musculus, 72 h, 3 days, MBP stain, dose-response 0.5 nM to 1000 nM, read-out: OPC EC50
Experimental: as §1
EpiSC-derived OPCs were grown and expanded in poly-L-ornithine (PO) and laminin-coated flasks in N2B27 media (DMEM/F12 (Gibco), N2-MAX (R&D Systems), B-27 (ThermoFisher), and GlutaMax (Gibco)) supplemented with FGF2 (10 μg/mL, R&D systems, 233-FB-025) and PDGF-AA (10 μg/mL, R&D systems, 233-AA-050) before harvesting for experiments. The cells were seeded onto poly-L-ornithine or poly-D-lysine coated CellCarrier Ultra plates (PerkinElmer) coated with laminin (Sigma, L2020) at a density of 150,000/cm^2 in N2B27 media without growth factors. For dose-response testing, a 1000× compound stock in dimethyl sulphoxide (DMSO) was added to assay plates, resulting in 8-point dose curves with final concentrations between 1000 nM and 0.5 nM. Positive controls and DMSO vehicle controls were included in each assay plate. Cells were incubated under standard conditions (37° C., 5% CO2) for 3 days and fixed with 4% paraformaldehyde (PFA) in phosphate buffered saline (PBS) for 20 min. Fixed plates were washed with PBS, permeabilized with 0.1% Triton X-100, and blocked with 10% donkey serum (v/v) in PBS for 40 min. Then, cells were labelled with MBP antibodies (Abcam, ab7349; 1:200) for 2 h at room temperature, washed with PBS, and stained with Alexa Fluor conjugated secondary antibodies (1:500) for 45 min. Nuclei were visualized by DAPI staining (Sigma; […]), followed by further PBS washes.
Cells and cell culture plates were imaged on the Operetta High Content Imaging and Analysis system (PerkinElmer). Analysis (PerkinElmer Harmony and Columbus software) began by identifying intact nuclei stained by DAPI. The peri-nuclear region of each cell was then cross-referenced with the mature myelin protein (MBP) stain to identify oligodendrocyte nuclei, and from this the percentage of oligodendrocytes was calculated. EC50 values were calculated using The Levenberg-Marquardt algorithm to fit a Hill equation to dose-response data (0.5 nM to 1000 nM).

[3] = biological target: human emopamil binding protein and human 7-dehydrocholesterol reductase (hEBP-DHCR7) (Homo sapiens (Human), UniProt Q15125); assay: hEBP-DHCR7 radioligand binding assay (filter binding, membranes of co-expressing HEK293 cells); details: competition with [3H] radioligand, 8 doses 0.06 to 5000 nM, Ki calculated from IC50
Experimental: Membrane Preparation: human emopamil binding protein and human 7-dehydrocholesterol reductase co-expressing cells were generated by transient transfecting host human embryonic kidney (HEK) 293 cells with 2 DNA constructs containing each protein's coding sequence. Cells were suspension cultured at 37° C. with 5% CO2 in […] 293 Expression Medium (Thermofisher). Whole cell membrane was prepared by harvesting the cell pellet, adding cold membrane buffer (50 mM Tris, pH7.5, 1× Roche COMPLETE EDTA-free protease inhibitor cocktail) 10 times volume of the cell pellets weight, lysing cell pellet on ice by using Dounce homogenizer, spinning at 200 g 4° C. for 15 min, collecting supernatant and spinning again at 25000 g 4° C. for 50 min, transferring pellet to Dounce homogenizer, re-suspending pellet by homogenizing in membrane buffer on ice to reach ˜25 mg/mL, then keeping whole cell membrane aliquots at −80° C.
Compounds were prepared in a 96-well U bottom plate (Corning Cat #7007) using an Echo550 machine and 10 mM compound DMSO stock solution, followed by an 8-dose 5-fold serial dilutions protocol with final testing compound concentration ranging from 0.06 to 5000 nM, with DMSO back fill to 100 nL/well and n=2. […] The UniFilter-96 GF/B plates (PerkinElmer Cat #6005177) were pre-treated by adding 50 μl/well of 0.3% (v/v) Polyethylenimine (PEI) (branched, Sigma Cat #408727) to UniFilter-96 GF/B plates. The plates were sealed and incubated at 4° C. for 3 hrs. Then, the plates were washed with ice-cold assay buffer 3 times. The radioligand binding assay was prepared by adding assay buffer diluted hEBP-DHCR7 membrane at 66.7 µg/ml×150 μl/well into the 96-well compound plate to reach 10 μg membrane per well. Then, the assay buffer diluted [3H]—(S)-6-(2-Methyl-3-(6-(trifluoromethyl)pyridin-3-yl)propyl)-2-thia-6-azaspiro[3.4]octane 2,2-dioxide (Moravek, Cat #MT-1003106) was added at 25 nM×50 μl/well. Following this, the plate was centrifuged at 1000 rpm for 30 secs. The plate was then sealed and agitated at 600 rpm at 22° C. for 5 min, and then incubated at 22° C. for 3 hrs. The incubation was stopped by transferring the binding solution to the pre-treated UniFilter-96 GF/B plate, vacuum filtrated, and then washed four times with ice-cold assay buffer. Following this, the plates were dried at 37° C. for 45 min. The plates were then sealed at the bottom. 40 µl/well of scintillation cocktail was added to the plates. A MicroBeta2 microplate counter was then used to read the plate and analyze the data. For reference and test compounds, the results are expressed as % Inhibition, using the normalization equation: N=100−100×(U−C2)/(C1−C2), where U is the unknown value, C1 is the average of high controls, and C2 is the average value of low controls.

Sequence of human emopamil binding protein and human 7-dehydrocholesterol reductase (hEBP-DHCR7) (Q15125 whole entry): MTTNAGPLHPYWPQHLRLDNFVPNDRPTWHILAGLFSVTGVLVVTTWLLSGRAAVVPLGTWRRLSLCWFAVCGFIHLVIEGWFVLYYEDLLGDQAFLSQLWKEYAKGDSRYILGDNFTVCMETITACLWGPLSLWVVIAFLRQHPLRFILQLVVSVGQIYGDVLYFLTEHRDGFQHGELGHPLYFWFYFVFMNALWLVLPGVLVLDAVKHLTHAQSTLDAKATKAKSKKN

Structure (SMILES)	EC50 [1] [nM]	EC50 [2] [nM]	Ki [3] [nM]	fold decrease in activity in the OPC assay ([2]; as compared to compound 171) [fold]
CC(C)n1nc(-c2cccc(C(F)(F)F)c2)nc1[C@H]1[C@@H]2C[C@H](N3CCCOCC3)C[C@@H]21 [Compound 13, 4-((1R,3r,5S,6r)-6-(1-isopropyl-3-(3-(trifluoromethyl)phenyl)-1H-1,2,4-triazol-5-yl)bicyclo[3.1.0]hexan-3-yl)-1,4-oxazepane]	1.48	3.18		
CC(C)n1nc(-c2cc(C(F)(F)F)ncn2)cc1[C@H]1[C@@H]2C[C@@H](N3CCOC[C@H]3C)C[C@@H]21 [Compound 202, (R)-4-((1R,3s,5S,6R)-6-(1-isopropyl-3-(6-(trifluoromethyl)pyrimidin-4-yl)-1H-pyrazol-5-yl)bicyclo[3.1.0]hexan-3-yl)-3-methylmorpholine]	4.76	21.6		
CC(C)n1nc(-c2cnc(N)c(C(F)(F)F)c2)cc1[C@H]1[C@@H]2C[C@H](N3CCOCC3)C[C@@H]21 [Compound B, reference compound]		692		41.7
CC(C)n1nc(-c2ccnc(C(F)(F)F)n2)cc1[C@H]1[C@@H]2C[C@@H](N3CCOC[C@@H]3C)C[C@@H]21 [Compound 100, (S)-4-((1R,3s,5S,6S)-6-(1-Isopropyl-3-(2-(trifluoromethyl)pyrimidin-4-yl)-1H-pyrazol-5-yl)bicyclo[3.1.0]hexan-3-yl)-3-methylmorpholine]	5.99		11	
CC(C)n1nc(-c2cnc(C(F)(F)F)nc2)nc1[C@@H]1CC[C@H](N2CCO[C@@H](C)C2)C1 [Compound 150, (S)-4-((1S,3R)-3-(1-Isopropyl-3-(2-(trifluoromethyl)pyrimidin-5-yl)-1H-1,2,4-triazol-5-yl)cyclopentyl)-2-methylmorpholine]	946		3540	
CC(C)n1nc(-c2cncc(C(F)(F)F)c2)nc1[C@H]1CC[C@H](N2CCOCC2)C1 (single isomer, unassigned) [Compound 116*]	49		169	
CC(C)n1nc(-c2cnc(F)c(C(F)(F)F)c2)nc1[C@@H]1CC[C@H](N2CCOCC2)C1 (single isomer, unassigned) [Compound 157*]	59.2		51	
CC(C)n1nc(-c2cnc(C(F)(F)F)nc2)nc1[C@@H]1CC[C@H](N2CCO[C@H](C)C2)C1 [Compound 148, (R)-4-((1S,3R)-3-(1-Isopropyl-3-(2-(trifluoromethyl)pyrimidin-5-yl)-1H-1,2,4-triazol-5-yl)cyclopentyl)-2-methylmorpholine]	13.4		22.2	
CC(C)n1nc(-c2cncc(C(F)(F)F)c2)nc1[C@@H]1CC[C@@H](N2CCOCC2)C1 (single isomer, unassigned) [Compound 115*]	97.2		35	
CC(C)n1nc(-c2cncc(C(F)(F)F)c2)cc1[C@H]1CC[C@@H](N2CCCOCC2)C1 (single isomer, unassigned) [64*]	2.75		15.6	

Further compounds by falling EC50 [1], results first:

EC50 [1] [nM]	EC50 [2] [nM]	Ki [3] [nM]	Structure (SMILES)	fold decrease in activity in the OPC assay ([2]; as compared to compound 171) [fold]
627		88.2	CC(C)n1nc(-c2ccc(C(F)(F)F)nc2)cc1[C@H]1CC[C@H](N2CCN(CCO)CC2)C1 (single isomer, unassigned) [88*]	
352		88	CC(C)n1nc(-c2cnc(C(F)(F)F)nc2)cc1[C@H]1CC[C@H](N2CCO[C@H](CF)C2)C1 (single isomer, unassigned) [Compound 132*]	
279		472	CC(C)n1nc(-c2cccc(C(F)(F)F)n2)cc1[C@H]1[C@@H]2C[C@H](N3CCN(C4CCC4)CC3)C[C@@H]21 [Compound 85, 1-Cyclobutyl-4-((1R,3r,5S,6r)-6-(1-isopropyl-3-(6-(trifluoromethyl)pyridin-2-yl)-1H-pyrazol-5-yl)bicyclo[3.1.0]hexan-3-yl)piperazine]	
236	723		CC(C)n1nc(-c2cncc(C(F)(F)F)c2)cc1[C@H]1[C@@H]2C[C@@H](N3CCOCC3)C[C@@H]21 [Cmpd 202]	
2.83		12	CC(C)n1nc(-c2cccc(OC(F)F)c2)nc1[C@H]1[C@@H]2C[C@H](N3CCCOCC3)C[C@@H]21 [Compound 75, 4-((1R,3r,5S,6r)-6-(3-(3-(Difluoromethoxy)phenyl)-1-isopropyl-1H-1,2,4-triazol-5-yl)bicyclo[3.1.0]hexan-3-yl)-1,4-oxazepane]	
1.74	4.16		CC(C)n1nc(-c2cccc(OC(F)(F)F)c2)nc1[C@H]1[C@@H]2C[C@H](N3CCCOCC3)C[C@@H]21 [Compound 17, 4-((1R,3r,5S,6r)-6-(1-isopropyl-3-(3-(trifluoromethoxy)phenyl)-1H-1,2,4-triazol-5-yl)bicyclo[3.1.0]hexan-3-yl)-1,4-oxazepane]	
0.94		11.3	CC[C@@H]1CN([C@@H]2CC[C@H](c3nc(-c4cnc(C(F)(F)F)c(F)c4)nn3C(C)C)C2)CCO1 [Compound 146, (R)-2-Ethyl-4-((1R,3S)-3-(3-(5-fluoro-6-(trifluoromethyl)pyridin-3-yl)-1-isopropyl-1H-1,2,4-triazol-5-yl)cyclopentyl)morpholine]	

— patent US20260008775A1, “AZOLE MODULATORS OF CHOLESTEROL BIOSYNTHESIS AND THEIR USE FOR PROMOTING REMYELINATION” (GENENTECH, INC., priority 2022, published 2026)
